Data reported in patent US4001418A, “1'-Substituted-thioxanthene-9-spiro-4'-piperidine derivatives and the 10-oxides and 10,10-dioxides thereof” (priority 1974, dated 1977).

Key:
intravenous LD50 = settings: mouse, in vivo
Description: The corresponding intravenous LD50 is 30 mg./kg. Other LD50 values for compounds of the invention when dosed intravenously are as follows: […]

oral LD50 in mice = settings: mouse, in vivo

Structure (SMILES)	LD50 (intravenous LD50; mice, read-out: intravenous LD50) [mg/kg]	LD50 (oral LD50 in mice) [mg/kg]	LD50 (intravenous LD50; table 1, read-out: LD50) [mg/kg]
CN1CCC2(CC1)c1ccccc1Sc1c(O)cccc12 [4-hydroxy-1'-methylthioxanthene-9-spiro-4'-piperidine]	30	> 500	–
C=CCN1CCC2(CC1)c1ccccc1Sc1c(O)cccc12 [Allyl 4-OH H H H S, 4-hydroxy-1'-allylthioxanthene-9-spiro-4'-piperidine]	–	–	43
CC(=O)Oc1cccc2c1Sc1cc(Cl)ccc1C21CCN(C)CC1 [Me 4-OAc H 6-Cl H S]	–	–	> 50
CCCN1CCC2(CC1)c1ccccc1Sc1c(O)cccc12 [n-Pr 4-OH H H H S]	–	–	35
